Read-outs that look alike come from different tables or passages of the source.
Key:
Format in all cases: in vivo
[1] = test system: foxtail, giant (giant foxtail, Setaria faberii); assay: Test A pre-/postemergence: foxtail, giant; settings: Setaria faberi, 240 h; for pest or weed control at 125 g/ha: 125 g ai/ha; for pest or weed control at 500 g/ha: 500 g ai/ha
Outline: (§1)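 Visual 0–100 injury ratings (0 no effect, 100 complete control) taken about ten days after treatment, relative to untreated controls. Preemergence treatment was a directed soil spray; postemergence plants were 2–10 cm tall at one- to two-leaf stage. Soil: loam/sand blend.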

[2] = test system: velvetleaf (Abutilon theophrasti); assay: Test A pre-/postemergence: velvetleaf; settings: for pest or weed control at 125 g/ha / pest or weed control at 500 g/ha: Abutilon theophrasti, 240 h; for pest or weed control at 125 g/ha: 125 g ai/ha; for pest or weed control at 500 g/ha: 500 g ai/ha; for Velvetleaf plant response rating: 1000 g ai/ha
Outline: as §1

[3] = test system: wheat (Triticum aestivum); assay: Test A pre-/postemergence: wheat; settings: for plant injury at 125 g/ha / plant injury at 500 g/ha: Triticum aestivum, 240 h; for plant injury at 125 g/ha: 125 g ai/ha; for plant injury at 500 g/ha: 500 g ai/ha; for Wheat plant response rating: 1000 g ai/ha
Outline: as §1

corn (Zea mays) = assay: Test A pre-/postemergence: corn; settings: for plant injury at 125 g/ha / plant injury at 500 g/ha / Corn plant response rating (crop injury, 0 = no effect, 100 = complete kill) at 125 g/ha / Corn plant response rating (crop injury, 0 = no effect, 100 = complete kill) at 500 g/ha: Zea mays, 240 h; for plant injury at 125 g/ha / plant injury at 500 g/ha: post-emergence, read-out: Corn plant response rating; for plant injury at 125 g/ha / Corn plant response rating (crop injury, 0 = no effect, 100 = complete kill) at 125 g/ha: 125 g ai/ha; for plant injury at 500 g/ha / Corn plant response rating (crop injury, 0 = no effect, 100 = complete kill) at 500 g/ha: 500 g ai/ha; for Corn plant response rating (crop injury, 0 = no effect, 100 = complete kill) at 125 g/ha / Corn plant response rating (crop injury, 0 = no effect, 100 = complete kill) at 500 g/ha: pre-emergence; for Corn plant response rating: 1000 g ai/ha
Outline: as §1

[4] = test system: winter wheat (Triticum aestivum); assay: Test C pre-/postemergence: winter wheat
Text: (§2) Seeds of plant species selected from blackgrass (Alopecurus myosuroides), bromegrass, downy (downy bromegrass, Bromus tectorum), foxtail, green (green foxtail, Setaria viridis), ryegrass, Italian (Italian ryegrass, Lolium multiflorum), winter wheat (Triticum aestivum), wild oat (Avena fatua), galium (catchweed bedstraw, Galium aparine), bermudagrass (Cynodon dactylon), surinam grass (Brachiaria decumbens), cocklebur (common cocklebur, Xanthium strumarium), corn (Zea mays), large crabgrass (Digitaria sanguinalis), woolly cupgrass (Eriochloa villosa), foxtail, giant (giant foxtail, Setaria faberii), goosegrass (Eleusine indica), johnsongrass (Sorghum halepense), kochia (Kochia scoparia), lambsquarters (Chenopodium album), morningglory (Ipomoea coccinea), nightshade (eastern black nightshade, Solanum ptycanthum), nutsedge, yellow (yellow nutsedge, Cyperus esculentus), pigweed (Amaranthus retroflexus), ragweed (common ragweed, Ambrosia elation), soybean (Glycine max), common (oilseed) sunflower (Helianthus annuus), Russian thistle (Salsola kali) and velvetleaf (Abutilon theophrasti) were planted into a blend of loam soil and sand and treated preemergence with test chemicals formulated in a non-phytotoxic solvent mixture which included a surfactant.
(§3) At the same time, plants selected from these crop and weed species and also barley (winter barley, Hordeum vulgare), canarygrass (Phalaris minor), chickweed (common chickweed, Stellaria media) windgrass (Apera spica-venti) and deadnettle (henbit deadnettle, Lamium amplexicaule) were planted in pots containing Redi-Earth® planting medium (Scotts Company, 14111 Scottslawn Road, Marysville, Ohio 43041) comprising spaghnum peat moss, vermiculite, wetting agent and starter nutrients and treated with postemergence applications of test chemicals formulated in the same manner. Plants ranged in height from 2 to 18 cm (1- to 4-leaf stage) for postemergence treatments.
(§4) Treated plants and controls were maintained in a greenhouse for 13 to 15 days, after which time all species were compared to controls and visually evaluated. Plant response ratings, summarized in Table C, are based on a scale of 0 to 100 where 0 is no effect and 100 is complete control. A dash (-) response means no test result.

[5] = test system: nutsedge, yellow (yellow nutsedge, Cyperus esculentus); assay: Test C pre-/postemergence: nutsedge, yellow
Text: as §2, §3, §4

[6] = test system: pigweed (Amaranthus retroflexus); assay: Test C pre-/postemergence: pigweed
Text: as §2, §3, §4

[7] = test system: chickweed (common chickweed, Stellaria media); assay: Test C postemergence: chickweed
Text: as §3, §4

[8] = post-emergence, Postemergence, 0 to 100 scale, 0 is no effect, 100 is complete control, read-out: Foxtail, Giant plant response rating
[9] = post-emergence, Postemergence, visual rating on 0 to 100 scale (0 no effect, 100 complete control), approximately ten days, read-out: Foxtail, Giant plant response rating
[10] = pre-emergence, Preemergence, 0 to 100 scale (0 no effect, 100 complete control), read-out: Plant response rating, Foxtail, Giant
[11] = post-emergence, Postemergence, 0 to 100 scale, 0 is no effect, 100 is complete control, read-out: Velvetleaf plant response rating
[12] = post-emergence, Postemergence, visual rating on 0 to 100 scale (0 no effect, 100 complete control), approximately ten days, read-out: Velvetleaf plant response rating
[13] = pre-emergence, Preemergence, 0 to 100 scale (0 no effect, 100 complete control), read-out: Plant response rating, Velvetleaf
[14] = post-emergence, Postemergence, 0 to 100 scale, 0 is no effect, 100 is complete control, read-out: Wheat plant response rating
[15] = post-emergence, Postemergence, visual rating on 0 to 100 scale (0 no effect, 100 complete control), approximately ten days, read-out: Wheat plant response rating
[16] = pre-emergence, Preemergence, 0 to 100 scale (0 no effect, 100 complete control), read-out: Plant response rating, Wheat
[17] = Postemergence, 0 to 100 scale, 0 is no effect, 100 is complete control
[18] = Postemergence, visual rating on 0 to 100 scale (0 no effect, 100 complete control), approximately ten days
[19] = Preemergence, 0 to 100 scale (0 no effect, 100 complete control)
[20] = Preemergence, 0 to 100 scale, 0 is no effect, 100 is complete control
[21] = Postemergence, 31 g ai/ha, scale 0 to 100 (0 no effect, 100 complete control)
[22] = Postemergence, 62 g ai/ha, scale 0 to 100 (0 no effect, 100 complete control)
[23] = Postemergence, 125 g ai/ha, scale 0 to 100, 0 no effect, 100 complete control
[24] = Preemergence, 31 g ai/ha, scale of 0 to 100, 0 is no effect, 100 is complete control
[25] = Preemergence, 62 g ai/ha, scale of 0 to 100, 0 is no effect, 100 is complete control
[26] = Preemergence, 125 g ai/ha, scale 0 to 100, 0 no effect, 100 complete control
[27] = Preemergence, 250 g ai/ha, scale 0 to 100, 0 no effect, 100 complete control
[28] = Postemergence, 250 g ai/ha, scale 0 to 100
[29] = pre-emergence, Preemergence, 0 to 100 scale where 0 is no effect and 100 is complete control, read-out: Plant response rating, Foxtail, Giant
[30] = pre-emergence, Preemergence, 0 to 100 scale where 0 is no effect and 100 is complete control, read-out: Plant response rating, Velvetleaf
[31] = pre-emergence, Preemergence, 0 to 100 scale where 0 is no effect and 100 is complete control, read-out: Plant response rating, Wheat
[32] = Preemergence, 0 to 100 scale where 0 is no effect and 100 is complete control

## Cc1nn(-c2ccc(C(F)(F)F)cc2)nc1Oc1csc(C(F)(F)F)c1 [Compound 1, 4-methyl-2-[4-(trifluoromethyl)phenyl]-5-[[5-(trifluoromethyl)-3-thienyl]oxy]-2H-1,2,3-triazole]
[1]; [8]
  pest or weed control at 125 g/ha: 50%
[1]; [9]
  pest or weed control at 500 g/ha: 70%
[1]; [10]
  pest or weed control at 125 g/ha: 60%
[1]; pre-emergence, Preemergence, 0 to 100 scale, 0 is no effect, 100 is complete control, read-out: Plant response rating, Foxtail, Giant
  pest or weed control at 500 g/ha: 100%
[2]; [11]
  pest or weed control at 125 g/ha: 30%
[2]; [12]
  pest or weed control at 500 g/ha: 70%
[2]; [13]
  pest or weed control at 125 g/ha: 0%
[2]; pre-emergence, Preemergence, 0 to 100 scale, 0 is no effect, 100 is complete control, read-out: Plant response rating, Velvetleaf
  pest or weed control at 500 g/ha: 10%
[3]; [14]
  plant injury at 125 g/ha: 10%
[3]; [15]
  plant injury at 500 g/ha: 20%
[3]; [16]
  plant injury at 125 g/ha: 0%
[3]; pre-emergence, Preemergence, 0 to 100 scale, 0 is no effect, 100 is complete control, read-out: Plant response rating, Wheat
  plant injury at 500 g/ha: 0%
Corn (Zea mays); [17]
  plant injury at 125 g/ha: 20%
Corn (Zea mays); [18]
  plant injury at 500 g/ha: 20%
Corn (Zea mays); [19]
  Corn plant response rating (crop injury, 0 = no effect, 100 = complete kill) at 125 g/ha: 0%
Corn (Zea mays); [20]
  Corn plant response rating (crop injury, 0 = no effect, 100 = complete kill) at 500 g/ha: 0%

## Cc1nn(-c2ccc(C(F)(F)F)cn2)nc1Cc1cccc(C(F)(F)F)c1 [Compound 106]
[2]; [18]
  Velvetleaf plant response rating: 70
[2]; [20]
  Velvetleaf plant response rating: 0
[3]; [18]
  Wheat plant response rating: 10
[3]; [20]
  Wheat plant response rating: 0
Corn (Zea mays); [18]
  Corn plant response rating: 10
Corn (Zea mays); [20]
  Corn plant response rating: 10
[4]; [21]
  Plant response rating, Wheat: 10
[4]; [22]
  Plant response rating, Wheat: 30
[4]; [23]
  Plant response rating, Wheat: 30
[4]; [24]
  Plant response rating, Wheat: 0
[4]; [25]
  Plant response rating, Wheat: 0
[4]; [26]
  Plant response rating, Wheat: 0
[4]; [27]
  Plant response rating, Wheat: 5
[5]; [21]
  Plant response rating, Nutsedge, Yellow: 0
[5]; [22]
  Plant response rating, Nutsedge, Yellow: 0
[5]; [23]
  Plant response rating, Nutsedge, Yellow: 0
[5]; [28]
  Plant response rating, Nutsedge, Yellow: 0
[5]; [24]
  Plant response rating, Nutsedge, Yellow: 0
[5]; [25]
  Plant response rating, Nutsedge, Yellow: 0
[5]; [26]
  Plant response rating, Nutsedge, Yellow: 0
[5]; [27]
  Plant response rating, Nutsedge, Yellow: 0
[6]; [21]
  Plant response rating, Pigweed: 95
[6]; [22]
  Plant response rating, Pigweed: 98
[6]; [23]
  Plant response rating, Pigweed: 98
[6]; [28]
  Plant response rating, Pigweed: 98
[6]; [24]
  Plant response rating, Pigweed: 85
[6]; [25]
  Plant response rating, Pigweed: 98
[6]; [26]
  Plant response rating, Pigweed: 100
[6]; [27]
  Plant response rating, Pigweed: 100
[7]; 31 g ai/ha, scale 0 to 100 (0 no effect, 100 complete control)
  Plant response rating, Chickweed: 60
[7]; 62 g ai/ha, scale 0 to 100 (0 no effect, 100 complete control)
  Plant response rating, Chickweed: 70
[7]; 125 g ai/ha, scale 0 to 100, 0 no effect, 100 complete control
  Plant response rating, Chickweed: 95
[7]; 250 g ai/ha, scale 0 to 100
  Plant response rating, Chickweed: 98

## COCc1nn(-c2ccc(C(F)(F)F)cc2)nc1Oc1cccc(OC(F)(F)F)c1 [Compound 115, 4-(methoxymethyl)-5-[3-(trifluoromethoxy)phenoxy]-2-[4-(trifluoromethyl)phenyl]-2H-1,2,3-triazole]
[1]; [8]
  pest or weed control at 125 g/ha: 30%
[1]; [9]
  pest or weed control at 500 g/ha: 60%
[1]; [29]
  pest or weed control at 125 g/ha: 60%
[1]; [10]
  pest or weed control at 500 g/ha: 100%
[2]; [11]
  pest or weed control at 125 g/ha: 10%
[2]; [12]
  pest or weed control at 500 g/ha: 30%
[2]; [30]
  pest or weed control at 125 g/ha: 0%
[2]; [13]
  pest or weed control at 500 g/ha: 20%
[3]; [14]
  plant injury at 125 g/ha: 10%
[3]; [15]
  plant injury at 500 g/ha: 20%
[3]; [31]
  plant injury at 125 g/ha: 0%
[3]; [16]
  plant injury at 500 g/ha: 10%
Corn (Zea mays); [17]
  plant injury at 125 g/ha: 10%
Corn (Zea mays); [18]
  plant injury at 500 g/ha: 30%
Corn (Zea mays); [32]
  Corn plant response rating (crop injury, 0 = no effect, 100 = complete kill) at 125 g/ha: 0%
Corn (Zea mays); [19]
  Corn plant response rating (crop injury, 0 = no effect, 100 = complete kill) at 500 g/ha: 10%

## FCc1nn(-c2ccc(C(F)(F)F)cc2)nc1Oc1cccc(OC(F)(F)F)c1 [Compound 116, 4-(fluoromethyl)-5-[3-(trifluoromethoxy)phenoxy]-2-[4-(trifluoromethyl)phenyl]-2H-1,2,3-triazole]
[1]; [8]
  pest or weed control at 125 g/ha: 30%
[1]; [9]
  pest or weed control at 500 g/ha: 50%
[1]; [29]
  pest or weed control at 125 g/ha: 60%
[1]; [10]
  pest or weed control at 500 g/ha: 90%
[2]; [11]
  pest or weed control at 125 g/ha: 20%
[2]; [12]
  pest or weed control at 500 g/ha: 50%
[2]; [30]
  pest or weed control at 125 g/ha: 0%
[2]; [13]
  pest or weed control at 500 g/ha: 20%
[3]; [14]
  plant injury at 125 g/ha: 10%
[3]; [15]
  plant injury at 500 g/ha: 10%
[3]; [31]
  plant injury at 125 g/ha: 0%
[3]; [16]
  plant injury at 500 g/ha: 10%
Corn (Zea mays); [17]
  plant injury at 125 g/ha: 20%
Corn (Zea mays); [18]
  plant injury at 500 g/ha: 30%
Corn (Zea mays); [32]
  Corn plant response rating (crop injury, 0 = no effect, 100 = complete kill) at 125 g/ha: 0%
Corn (Zea mays); [19]
  Corn plant response rating (crop injury, 0 = no effect, 100 = complete kill) at 500 g/ha: 10%

— patent publication US9302999B2, “Substituted triazoles as herbicides” (E. I. DU PONT DE NEMOURS AND COMPANY, priority 2012, dated 2016)
